The text below walks through data of article PMC6753678, “Fueling Open Innovation for Malaria Transmission-Blocking Drugs: Hundreds of Molecules Targeting Early Parasite Mosquito Stages” (Frontiers in Microbiology, 2019).

In data set [1] the test system is P. berghei ookinete development. The settings on record: for % inhibition, Replicate A / % inhibition, Replicate B: primary screen at 1 μM.
The subject of data set [2] is 3D7-strain P. falciparum asexual parasites. The data set is described as follows: P. falciparum asexual growth inhibition assay (Pf GIA). The data set is classed as cell-based, Plasmodium falciparum. The procedure, abridged: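 Parasites at 0.25% parasitemia, 2% hematocrit in Albumax-supplemented RPMI were exposed to compounds in dose response for 72 h at 37°C under 5% CO2/5% O2. Viability was read as LDH activity (NBT/diaphorase, A650 after freeze-thaw). Percent inhibition was calculated against chloroquine and DMSO controls, mean of three biological replicates.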

Data set [3] concerns P. berghei ookinete development. The data set is described as follows: microbe, parasite or virus in culture. The settings on record: Plasmodium berghei.
The test system of data set [4] is HepG2 cells. The data set is described as follows: HepG2 cytotoxicity assay. The following applies: for pIC50: read-out: HepG2 cytotoxicity assay IC50, dose response confirmation; for HepG2 cytoxicity: value reported with the Pb ODA screen, this manuscript. The procedure, abridged: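 Cells at 2,500 per well in MEM with 10% fetal bovine serum and 1% NEAA were exposed to test compounds for 48 h at 37°C, 5% CO2. Viability was read by fluorescence, with percent inhibition calculated against 50 μM doxorubicin (positive) and DMSO (negative) controls.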

In data set [5] the test system is P. falciparum late stage (stages IV-V) gametocytes. The data set is described as follows: P. falciparum late stage gametocyte ATP depletion assay (Pf GC-ATP). The settings on record: 1: YES; 0: NO.
In data set [6] the test system is HepG2 cells. The settings on record: cited from earlier work.
Data set [7] relates to P. falciparum female gametocytes. The data set is described as follows: P. falciparum female gametogenesis assay (Pf FGAA). The following applies: 1: YES; 0: NO.
The test system is the same in data set [8]. The arrangement: method as in Miguel-Blanco et al 2017. The settings on record: TCAMS screen comparison; ref Miguel-Blanco et al 2017; read-out: Pf FGAA IC50; cited from earlier work.
Data set [9] relates to P. falciparum late stage (stages IV-V) gametocytes. The arrangement: method as in Almela et al 2016. The settings on record: TCAMS screen comparison; ref Almela et al 2016; read-out: Pf GCT ATP IC50; cited from earlier work.
Where [10] appears, read: read-out: Pb ODA IC50, this manuscript.
Where [11] appears, read: read-out: Pb Ookinete development assay IC50, dose response confirmation.
The mark [12] stands for this setting: dose response confirmation, read-out: Pf asexual growth inhibition assays IC50.
Where [13] appears, read: value reported with the Pf FGAA screen, ref Miguel-Blanco et al 2017.
[14] abbreviates: value reported with the Pf GCT ATP screen, ref Almela et al 2016.
Where [15] appears, read: HepG2 cytotoxicity unified across the three screens.

pIC50: −log10 of the molar value. Like-named read-outs stand apart in the source and are kept apart here.

Regarding `C[C@@H]1C[C@@H]([C@H](O)CC2CC(=O)NC(=O)C2)C(=O)[C@@H](C)C1` [TCMDC-125838], the “Is compound selective in assay? Pb ODA active?” value in data set [1] was 1 (key: 1: YES; 0: NO). The pIC50 (as a rule, the IC50 on a negative log10 scale, so that one unit is a factor of ten) in data set [2] (Plasmodium falciparum, 3D7, read-out: Pf asexual growth inhibition assays IC50) is 6.22; in data set [3] (read-out: Pb Ookinete development assay IC50), 6.96; in data set [4], 4.00. Also, the inhibition (as a rule, the relative decrease from the control value, in per cent) at 1 µM in data set [3] (read-out: % inhibition, Replicate A) was 110%; in [3] (read-out: % inhibition, Replicate B) it was 117%. In addition, the IC50 (usually the midpoint of a concentration-inhibition curve) in [3] (read-out: Pb ODA IC50 (µM)) was determined as 0.11 µM. The “Unified cytotox” value in data set [4] (unified HepG2 value across the three screens) turned out to be 100.00 µM.
Consider `CCc1c(CCNCCCCCCNCCc2ccc([N+](=O)[O-])cc2)ccc(OC)c1OC.Cl` [TCMDC-132066], for which the “Is compound selective in assay? Pf GC-ATP active?” value in [5] was 1 (1: YES). Further, in data set [1] (1: YES, 0: NO), the “Is compound selective in assay? Pb ODA active?” value was 0 (0: NO). In data set [1], the “% inhibition, Replicate A” value was 25.72%. The “% inhibition, Replicate B” value in [1] amounted to 55.23%. Further, the negative logarithm of the IC50 (pIC50) in data set [1] (setting [10]) is 5.18; in data set [1] (setting [11]), 5.18; in [2] (setting [12]), 6.17; in data set [8], 5.84; in [4], 5.29; in data set [9], 6.27. Also, the “HepG2 cytoxicity” value in [6] (setting [13]) was 4.57 µM; in [6] (setting [14]) it was 6.67 µM; in data set [4], 5.13 µM. Besides, in [7], the “Is compound selective in assay? Pf FGAA active?” value is 0 (0: NO). Moreover, in data set [4] (setting [15]), the “Unified cytotox” value stood at 5.46 µM.
For `COc1cc(-c2cc(-c3ccc(S(C)(=O)=O)cc3)cnc2N)ccc1O` [TCMDC-133343], the “Is compound selective in assay? Pf GC-ATP active?” value in [5] is listed as 1 (1: YES). In addition, in data set [1] (1: YES, 0: NO), the “Is compound selective in assay? Pb ODA active?” value is given as 1 (1: YES). Besides, the “% inhibition, Replicate A” value in [1] came out at 63.88%. Further, the “% inhibition, Replicate B” value in data set [1] turned out to be 36.72%. Besides, the pIC50 in [1] (setting [10]) is 5.68; in data set [1] (setting [11]), 5.68; in data set [2] (setting [12]), 6.62; in [8], 6.41; in [4], 4.24; in data set [9] it was 5.91. For the same compound, the “HepG2 cytoxicity” value is 41.69 µM in [6] (setting [13]), >25 µM in [6] (setting [14]) and 57.54 µM in data set [4]. Also, the “Is compound selective in assay? Pf FGAA active?” value in data set [7] is reported as 1 (1: YES). For the same compound, the “Unified cytotox” value in data set [4] (setting [15]) worked out at 49.62 µM.
Take `Cc1occc1C(=O)Nc1nc(-c2ccccn2)nc2ccsc12` [TCMDC-135244]: the “Is compound selective in assay? Pf GC-ATP active?” value in data set [5] is recorded as 0 (0: NO). Further, the “Is compound selective in assay? Pb ODA active?” value in [1] (1: YES, 0: NO) is listed as 0 (0: NO). Also, the “% inhibition, Replicate A” value in [1] was found to be 79.17%. In [1], the “% inhibition, Replicate B” value worked out at 64.59%. Besides, the pIC50 was 5.87 in data set [1] (setting [10]); 5.87 in data set [1] (setting [11]); 6.18 in data set [2] (setting [12]); 7.22 in data set [8]; 6.06 in data set [4]; 6.52 in data set [9]. Besides, the “HepG2 cytoxicity” value in data set [6] (setting [13]) was >100 µM; in data set [6] (setting [14]) it was <1.56 µM. In addition, the “Is compound selective in assay? Pf FGAA active?” value in data set [7] is 1 (1: YES). Further, in [4] (setting [15]), the “Unified cytotox” value came to 0.87 µM.
With `CC(=O)c1ccc2nc[nH]c(=O)c2c1` [TCMDC-138172], the “Is compound selective in assay? Pf GC-ATP active?” value in data set [5] is given as 0 (0: NO). Moreover, in data set [1] (1: YES, 0: NO), the “Is compound selective in assay? Pb ODA active?” value is on record as 0 (0: NO). Also, the “% inhibition, Replicate A” value in [1] is recorded as 76.19%. Further, the “% inhibition, Replicate B” value in [1] was found to be 65.80%. Further, the pIC50 was 6.30 in data set [1] (setting [10]); 6.30 in data set [1] (setting [11]); 6.54 in data set [2] (setting [12]); 6.01 in data set [8]; 5.91 in data set [4]; 6.40 in data set [9]. The “HepG2 cytoxicity” value in data set [6] (setting [13]) is given as 6.24 µM; in [6] (setting [14]), <1.56 µM; in data set [4], 1.24 µM. Moreover, the “Is compound selective in assay? Pf FGAA active?” value in [7] is listed as 0 (0: NO). Moreover, the “Unified cytotox” value in data set [4] (setting [15]) was 3.74 µM.
`C=CCC1OC(=O)c2cc(OC)cc(OC)c21` (stereo not shown) [TCMDC-138677]: the “Is compound selective in assay? Pf GC-ATP active?” value in [5] is given as 0 (0: NO). In data set [1] (1: YES, 0: NO), the “Is compound selective in assay? Pb ODA active?” value was 0 (0: NO). Moreover, the “% inhibition, Replicate A” value in data set [1] is 53.73%. In addition, in data set [1], the “% inhibition, Replicate B” value is reported as 47.60%. The pIC50 in [1] (setting [10]) was 5.63; in data set [1] (setting [11]), 5.63; in data set [2] (setting [12]), 6.35; in [8] it was 6.44; in data set [4] it was 5.59; in data set [9] it was 6.22. The “HepG2 cytoxicity” value in [6] (setting [13]) is reported as 2.29 µM; in [6] (setting [14]) it was <1.56 µM; in [4], 2.57 µM. In data set [7], the “Is compound selective in assay? Pf FGAA active?” value is 0 (0: NO). In addition, the “Unified cytotox” value in [4] (setting [15]) amounted to 2.43 µM.
`ON=C1CCc2cc(-c3cc(-c4ccc(OC5CCNCC5)cc4)oc3-c3ccncc3)ccc21` [TCMDC-141381]: the “Is compound selective in assay? Pf GC-ATP active?” value in data set [5] is reported as 1 (1: YES). Moreover, the “Is compound selective in assay? Pb ODA active?” value in [1] (1: YES, 0: NO) is on record as 0 (0: NO). In addition, the “% inhibition, Replicate A” value in data set [1] was 75.99%. Moreover, the “% inhibition, Replicate B” value in [1] stood at 61.54%. Besides, the negative-log IC50 (pIC50) in data set [1] (setting [10]) was 5.85; in data set [1] (setting [11]), 5.85; in data set [2] (setting [12]), 6.91; in [8] it was 6.70; in data set [4], 5.28; in [9], 6.57. Moreover, the “HepG2 cytoxicity” value in data set [6] (setting [13]) was 5.01 µM; in [6] (setting [14]), 7.5 µM; in data set [4], 5.25 µM. In addition, the “Is compound selective in assay? Pf FGAA active?” value in [7] is recorded as 1 (1: YES). Besides, the “Unified cytotox” value in data set [4] (setting [15]) is 5.92 µM.
Regarding `O=C(O)CCSSc1cccc[n+]1[O-]` [TCMDC-141973], the “Is compound selective in assay? Pf GC-ATP active?” value in data set [5] is given as 1 (1: YES). Moreover, the “Is compound selective in assay? Pb ODA active?” value in [1] (1: YES, 0: NO) is 1 (1: YES). Further, the “% inhibition, Replicate A” value in data set [1] stood at 62.58%. The “% inhibition, Replicate B” value in data set [1] is 47.23%. In addition, the negative-log IC50 (pIC50) is 5.72 in [1] (setting [10]); 5.72 in data set [1] (setting [11]); 5.78 in data set [2] (setting [12]); 7.40 in data set [8]; 4.51 in [4]; 6.57 in data set [9]. Besides, the “HepG2 cytoxicity” value in [6] (setting [13]) was 19.05 µM; in [6] (setting [14]), 7.8 µM; in data set [4], 30.90 µM. In addition, the “Is compound selective in assay? Pf FGAA active?” value in [7] is on record as 1 (1: YES). Moreover, in data set [4] (setting [15]), the “Unified cytotox” value came out at 19.25 µM.
